The values below come from patent US9233095B2, “Small molecule RNase inhibitors and methods of use” (University of Rochester, priority 2011, dated 2016).

The structures appear in SMILES notation.

One assay relates to S. aureus strain Smith. The assay can be described thus: acute lethal model of infection. It is filed as in vivo, CD-1 mice. Conditions: 5 days. The method, then: Because RNPA1000 was not toxic during short- and only mildly toxic during extended-HepG2 exposure, it could serve as an appropriate tool to assess whether RnpA-inhibitory molecules are efficacious in a systemic mouse infection model. […] RNPA1000 was solubilized in 1:1 mixture of DMSO and PEG400; Vancomycin was prepared in water. Animals (5/dose group) were administered 16, 64, and 256 mg/kg or 0.25, 1, 4, and 16 mg/kg of RNPA1000 or Vancomycin, respectively, at 30 min post infection by subcutaneous injection (0.2 ml). The percent surviving animals receiving no treatment, a single dose of Vancomycin, or RnpA-inhibitor was recorded daily over the course of the study (5 days).
Percent survival refers to a consensus of surviving animals following 5 days post-intraperitoneal S. aureus injection and RNPA1000 administration. The number in parentheses indicates the number of times the experiment was repeated. Each member of non-treated control mice expired within 24 hr bacterial inoculation (0 mg/kg). Vancomycin served as a positive control.

For a further assay, the system named is S. aureus (MSSA). Briefly: CLSI broth microdilution MIC. It is filed as cell-based, Staphylococcus aureus. Conditions: strain UAMS-1, the strain's MIC used for time-kill assays. The source says:
In some examples, compounds can be further assayed using the Mueller Hinton (MH) broth antibacterial assay as specified by the Clinical and Laboratory Standards Institute MIC broth microdilution protocol (see Methods for Dilution Antimicrobial Susceptibility Tests for Bacteria That Grow Aerobically; Approved Standard, In The Clinical and Laboratory Standards Institute (CLSI, formerly NCCLS), 7th ed., January 2006, 26 (2), M7-A7; see also Performance Standards for Antimicrobial Susceptibility Testing; Eighteenth Informational Supplement, In The Clinical and Laboratory Standards Institute (CLSI, formerly NCCLS), January 2008, 28 (1), M100-S18).
With the exception of RN4220-derivatives, in vitro activities of RNPA1000 against bacteria were determined by the broth microdilution method according to the Clinical and Laboratory Standards Institute (CLSI) guidelines using cation adjusted Mueller-Hinton broth or MH broth supplemented with 5% lysed horse blood (for testing Streptotococcus spp.). Microtiter plates containing serial dilutions of RNPA1000 (0, 4, 8, 16, 32, 64, and 128 μg/ml) were inoculated with 10^5 colony forming units (CFU)/ml and incubated for 18 hr at 37° C. […] The MIC value for each S. aureus strain was determined to be the median score of replicate measurements (n=5). Wells containing concentrations of RNPA1000≧MIC were plated for minimal bactericidal measurement. Where possible, experiments with VRSA strains were performed in a laminar flow hood to minimize potential for equipment contamination. For RN4220 cells containing plasmid vector (pCN51), RnpA overproducing plasmid (pRNPA-S) or RnpA underproducing plasmid (pRNPA-A.S.) in vitro antimicrobial activity of RNPA1000 was performed by the microdilution method as described above, except that cells were grown in Tryptic Soy Broth medium supplemented with 2.5 μM CdCl2 and 0, 1, 2, 4, 8, 16, 32, 64, or 128 μg/ml RNPA1000. Time-kill assays were also performed to monitor the antimicrobial properties of RNPA1000 for S. aureus strain UAMS-1 in the absence and presence of 0.25, 0.5, 2, and 4 times the strain's MIC for oxacillin (1 μg/ml), rifampicin (0.5 μg/ml), vancomycin (2 μg/ml), or daptomycin (1 μg/ml). The indicated amount of RNPA1000 and/or commercial antibiotic were added to mid-exponential phase (2×10^8 cfu/ml) S. aureus strain UAMS-1 cells and incubated at 37° C. Aliquots were removed at 0, 2, 4, 8, and 24 hr post-antimicrobial challenge, serial diluted, and plated to enumerate resulting cfu/ml. All time-kill assays were repeated at least 3 times.

Assay [1] relates to biofilm-associated S. aureus strain UAMS-1. Conditions: Weiss et al. 2009, cited from earlier work; for clearance of biofilm-associated S. aureus: 20× MIC over 3 days; for maximal decrease in biofilm-associated bacteria: same model and conditions.

Regarding `CN[C@H](CC(C)C)C(=O)N[C@H]1C(=O)N[C@@H](CC(N)=O)C(=O)N[C@H]2C(=O)N[C@H]3C(=O)N[C@H](C(=O)N[C@H](C(=O)O)c4cc(O)cc(O)c4-c4cc3ccc4O)[C@H](O)c3ccc(c(Cl)c3)Oc3cc2cc(c3O[C@@H]2O[C@H](CO)[C@@H](O)[C@H](O)[C@H]2O[C@H]2C[C@](C)(N)[C@H](O)[C@H](C)O2)Oc2ccc(cc2Cl)[C@H]1O` [Vancomycin, vancomycin, reference compound], the “% Survival” value is on record as 0% with S. aureus strain Smith (Vancomycin 0.25 mg/kg s.c.), 100% in the assay on S. aureus strain Smith (Vancomycin 1 mg/kg s.c.), 100% in the assay on S. aureus strain Smith (Vancomycin 4 mg/kg s.c.) and 100% in the assay with S. aureus strain Smith (Vancomycin 16 mg/kg s.c.). For the same molecule, the “MIC of commercial antibiotic” value in the assay on S. aureus (MSSA) came out at 2 µg/mL. In addition, the “clearance of biofilm-associated S. aureus” value (from here on “clearance”) in assay [1] is recorded as “none of these antibiotics cleared”. Further, in assay [1], the “maximal decrease in biofilm-associated bacteria” value (from here on “maximal decrease”) was 4 log.
As to `Cc1onc(-c2ccccc2)c1C(=O)N[C@@H]1C(=O)N2[C@@H]1SC(C)(C)[C@@H]2C(=O)O` [oxacillin], the “MIC of commercial antibiotic” value with S. aureus (MSSA) was 1 µg/mL.
Same read-out and setting: with `CO[C@H]1/C=C/O[C@@]2(C)Oc3c(C)c(O)c4c(O)c(c(/C=N/N5CCN(C)CC5)c(O)c4c3C2=O)NC(=O)/C(C)=C\C=C\[C@H](C)[C@H](O)[C@@H](C)[C@@H](O)[C@@H](C)[C@H](OC(C)=O)[C@@H]1C` [rifampicin] the figure was 0.5 µg/mL.
In the case of `CC(=O)NC[C@H]1CN(c2ccc(N3CCOCC3)c(F)c2)C(=O)O1` [linezolid], in assay [1], the “clearance” value is on record as “none of these antibiotics cleared” and the “maximal decrease” value is listed as 5 log.
As for `CCCCCCCCCC(=O)N[C@@H](Cc1c[nH]c2ccccc12)C(=O)N[C@H](CC(N)=O)C(=O)N[C@@H](CC(=O)O)C(=O)N[C@@H]1C(=O)NCC(=O)N[C@@H](CCCN)C(=O)N[C@@H](CC(=O)O)C(=O)N[C@H](C)C(=O)N[C@@H](CC(=O)O)C(=O)NCC(=O)N[C@H](CO)C(=O)N[C@@H]([C@H](C)CC(=O)O)C(=O)N[C@@H](CC(=O)c2ccccc2N)C(=O)O[C@@H]1C` [daptomycin], in the assay with S. aureus (MSSA), the “MIC of commercial antibiotic” value was determined as 1 µg/mL. In assay [1], the “clearance” value is “none of these antibiotics cleared” and the “maximal decrease” value is 6 log.
